One may read the IC50 as the concentration at which inhibition is half-maximal. A low value points to greater potency.

PD-1/PD-L1 interaction (PD-1-Ig / PD-L1-His), sequence (Q9NZQ7 18-239): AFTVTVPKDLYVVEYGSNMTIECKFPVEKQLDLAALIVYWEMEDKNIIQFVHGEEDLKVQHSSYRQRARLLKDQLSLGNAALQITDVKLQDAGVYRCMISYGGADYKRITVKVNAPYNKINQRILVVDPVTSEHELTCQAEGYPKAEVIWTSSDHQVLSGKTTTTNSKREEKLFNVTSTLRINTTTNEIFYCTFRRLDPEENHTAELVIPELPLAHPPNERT

This experiment concerns the target PD-1/PD-L1 interaction (PD-1-Ig / PD-L1-His) (Homo sapiens (Human), UniProt Q9NZQ7). The experiment is described as follows: PD-1/PD-L1 Homogenous Time-Resolved Fluorescence (HTRF) binding assay. The settings on record: PD-L1-His 10 nM final, PD-1-Ig 20 nM final. The source says: The ability of the compounds of the invention to bind to PD-L1 was investigated using a PD-1/PD-L1 Homogenous Time-Resolved Fluorescence (HTRF) binding assay.
The interaction of PD-1 and PD-L1 can be assessed using soluble, purified preparations of the extracellular domains of the two proteins. The PD-1 and PD-L1 protein extracellular domains were expressed as fusion proteins with detection tags, for PD-1, the tag was the Fc portion of Immunoglobulin (PD-1-Ig) and for PD-L1 it was the 6 histidine motif (PD-L1-His). All binding studies were performed in an HTRF assay buffer consisting of dPBS supplemented with 0.1% […] bovine serum albumin and 0.05% (v/v) Tween-20. For the h/PD-L1-His binding assay, inhibitors were pre-incubated with PD-L1-His (10 nM final) for 15 m in 4 μl of assay buffer, followed by addition of PD-1-Ig (20 nM final) in 1 μl of assay buffer and further incubation for 15 m. HTRF detection was achieved using europium crypate-labeled anti-Ig (1 nM final) and allophycocyanin (APC) labeled anti-His (20 nM final). Antibodies were diluted in HTRF detection buffer and 5 μl was dispensed on top of the binding reaction. The reaction mixture was allowed to equilibrate for 30 minutes and the resulting signal (665 nm/620 nm ratio) was obtained using an EnVision fluorometer. Additional binding assays were established between the human proteins PD-1-Ig/PD-L2-His (20 & 5 nM, respectively) and CD80-His/PD-L1-Ig (100 & 10 nM, respectively).
Recombinant Proteins: Human PD-1 (25-167) with a C-terminal human Fc domain of immunoglobulin G (Ig) epitope tag [hPD-1 (25-167)-3S-IG] and human PD-L1 (18-239) with a C-terminal His epitope tag [hPD-L1(18-239)-TVMV-His] were expressed in HEK293T cells and purified sequentially by ProteinA affinity chromatography and size exclusion chromatography. Human PD-L2-His and CD80-His was obtained through commercial sources.
Homogenous Time-Resolved Fluorescence (HTRF) Assays of Binding of Soluble PD-1 to Soluble PD-L1. Soluble PD-1 and soluble PD-L1 refers to proteins with carboxyl-end truncations that remove the transmembrane-spanning regions and are fused to heterologous sequences, specifically the Fc portion of the human immunoglobuling G sequence (Ig) or the hexahistidine epitope tag (His). All binding studies were performed in an HTRF assay buffer consisting of dPBS supplemented with 0.1% (w/v) bovine serum albumin and 0.05% (v/v) Tween-20. For the PD-1-Ig/PD-L1-His binding assay, inhibitors were pre-incubated with PD-L1-His (10 nM final) for 15 m in 4 μl of assay buffer, followed by addition of PD-1-Ig (20 nM final) in 1 μl of assay buffer and further incubation for 15 m. PD-L1 fusion proteins from either human, cynomologous macaques, mouse, or other species were used. HTRF detection was achieved using europium crypate-labeled anti-Ig monoclonal antibody (1 nM final) and allophycocyanin (APC) labeled anti-His monoclonal antibody (20 nM final). Antibodies were diluted in HTRF detection buffer and 5 μl was dispensed on top of binding reaction. The reaction was allowed to equilibrate for 30 minutes and signal (665 nm/620 nm ratio) was obtained using an EnVision fluorometer. Additional binding assays were established between PD-1-Ig/PD-L2-His (20 and 5 nM, respectively), CD80-His/PD-L1-Ig (100 and 10 nM, respectively) and CD80-His/CTLA4-Ig (10 and 5 nM, respectively).
Recombinant Proteins. Carboxyl-truncated human PD-1 (amino acids 25-167) with a C-terminal human Ig epitope tag [hPD-1 (25-167)-3S-IG] and human PD-L1 (amino acids 18-239) with a C-terminal His epitope tag [hPD-L1(19-239)-tobacco vein mottling virus protease cleavage site (TVMV)-His] were expressed in HEK293T cells and purified sequentially by recombinant Protein A affinity chromatography and size exclusion chromatography. Human PD-L2-His (Sino Biologicals), CD80-His (Sino Biologicals), CTLA4-Ig (RnD Systems) were all obtained through commercial sources.
In general terms: Time-resolved FRET reads energy transfer from a long-lived donor to a nearby acceptor.
As for `Cc1c(COc2cc(OCc3cncc(C#N)c3)c(CO)cc2Cl)cccc1-c1cccc(COc2cc(OCc3cncc(C#N)c3)c(CNC3(C)CCOC3=O)cc2Cl)c1C` (centres unmarked) [Compound 1017], the IC50 stood at 112 nM. This lies in the sub-micromolar range.
With `Cc1c(COc2cc3c(cc2Cl)CN(C2CCOC2=O)C(=O)CO3)cccc1-c1cccc(OCC2CCCN(C)C2)c1Cl` (centres unmarked) [Compound 1047] the figure was 388 nM; with `Cc1c(COc2cc(OCc3cncc(C#N)c3)c(CNC3CCCNC3=O)cc2Cl)cccc1-c1cccc(OCC2CCCN(C)C2)c1Cl` (centres unmarked) [Compound 1014], 3.2 nM.
In turn, `Cc1c(COc2cc(OCc3cncc(C#N)c3)c(CN[C@H]3CCOC3=O)cc2Cl)cccc1-c1cccc(COc2cc(OCc3cncc(C#N)c3)c(CN[C@H]3CCOC3=O)cc2Cl)c1C` [Compound 1019] registered an IC50 of 18.3 nM.
The result for `Cc1c(COc2cc(OCc3cncc(C#N)c3)c(CN(C)C3(C)CCOC3=O)cc2Cl)cccc1-c1cccc(COc2cc(OCc3cncc(C#N)c3)c(CN(C)C3(C)CCOC3=O)cc2Cl)c1C` (centres unmarked) [Compound 1051] reads 383 nM; that for `Cc1c(COc2cc(OCc3cncc(C#N)c3)c(CNC3CCNC3=O)cc2Cl)cccc1-c1cccc(OCC2CCCN(C)C2)c1Cl` (centres unmarked) [Compound 1027], 2.5 nM; that for `Cc1c(COc2cc(OCc3cncc(C#N)c3)c(CNC3CCNC3=O)cc2Cl)cccc1-c1cccc(OCC2CCCN(C)C2)c1Cl` (centres unmarked) [Compound 1011], 1.5 nM.
With `C=C1COc2cc(OCc3cccc(-c4cccc(OCC5CCCN(C)C5)c4Cl)c3C)c(Cl)cc2CN(C2CCOC2=O)C1` (centres unmarked) [Compound 1048] the figure was 3830 nM; with `COc1cc(OCc2cccc(-c3cccc(OCC4CCCN(C)C4)c3Cl)c2C)c(Cl)cc1CNC1C(=O)OCC1(C)C` (centres unmarked) [Compound 1037], 136 nM.
For `Cc1c(COc2cc(OCc3cncc(C#N)c3)c(CNC3CC(=O)OC3(C)C)cc2Cl)cccc1-c1cccc(COc2cc(OCc3cncc(C#N)c3)c(CNC3CC(=O)OC3(C)C)cc2Cl)c1C` (centres unmarked) [Compound 1021], the IC50 was 121 nM.
`Cc1c(COc2cc(OCc3cncc(C#N)c3)c(CNC3(C)CC(C)(C)OC3=O)cc2Cl)cccc1-c1cccc(OCC2CCCN(C)C2)c1Cl` (centres unmarked) [Compound 1009] showed an IC50 of 3 nM.
With `Cc1c(COc2cc(OCc3cncc(C#N)c3)c(CN[C@@H]3CCOC3=O)cc2Cl)cccc1-c1cccc(OCC2CCCN(C)C2)c1Cl` (some centres unmarked) [Compound 1002] the figure was 3.5 nM; with `Cc1c(COc2cc(OCc3cncc(C#N)c3)c(CNC3C(=O)OCC3(C)C)cc2Cl)cccc1-c1cccc(COc2cc(OCc3cncc(C#N)c3)c(CNC3C(=O)OCC3(C)C)cc2Cl)c1C` (centres unmarked) [Compound 1023], more than 10000 nM.
The result for `COc1cc(OCc2cccc(-c3cccc(OCC4CCCN(C)C4)c3Cl)c2C)c(Cl)cc1CNC1(C)CC(C)(C)OC1=O` (centres unmarked) [Compound 1039] reads 19.6 nM.
With `COc1cc(OCc2cccc(-c3cccc(OCC4CCCN(C)C4)c3Cl)c2C)c(Cl)cc1CNC1CC(C)OC1=O` (centres unmarked) [Compound 1033] the figure was 11.5 nM; with `Cc1c(COc2cc(O)c(CN[C@H]3COC(=O)C3)cc2Cl)cccc1-c1cccc(OCC2CCCN(C)C2)c1Cl` (some centres unmarked) [Compound 1028], 44.5 nM; with `Cc1c(COc2cc(OCc3cncc(C#N)c3)c(CNC3CC(C)OC3=O)cc2Cl)cccc1-c1cccc(COc2cc(OCc3cncc(C#N)c3)c(CNC3CC(C)OC3=O)cc2Cl)c1C` (centres unmarked) [Compound 1024], 21.4 nM.
Take `Cc1c(COc2cc(OCc3cncc(C#N)c3)c(CN[C@H]3CCOC3=O)cc2Cl)cccc1-c1cccc(OCC2CCCN(C)C2)c1Cl` (some centres unmarked) [Compound 1001]: the IC50 stood at 2.7 nM. Compared with the last compound, the IC50 is about 7.9-fold lower.
The result for `COc1cc(OCc2cccc(-c3cccc(OCC4CCCN(C)C4)c3Cl)c2C)c(Cl)cc1CNC1CC(C)(C)OC1=O` (centres unmarked) [Compound 1034] reads 7.4 nM; that for `COc1cc(OCc2cccc(-c3cccc(OCC4CCCN(C)C4)c3Cl)c2C)c(Cl)cc1CN[C@H]1CCOC1=O` (some centres unmarked) [Compound 1040], 6.7 nM.
For the compound `Cc1c(COc2cc(O)c(CNC3CC(C)OC3=O)cc2Cl)cccc1-c1cccc(OCC2CCCN(C)C2)c1Cl` (centres unmarked) [Compound 1030], the concentration for half-maximal inhibition (IC50) was 80.1 nM.
With `Cc1c(COc2cc(OCc3cncc(C#N)c3)c(CN[C@H]3COC(=O)C3)cc2Cl)cccc1-c1cccc(OCC2CCCN(C)C2)c1Cl` (some centres unmarked) [Compound 1003] the figure was 2 nM; with `Cc1c(COc2cc(OCc3cncc(C#N)c3)c(CNC3CC(C)OC3=O)cc2Cl)cccc1-c1cccc(OCC2CCCN(C)C2)c1Cl` (centres unmarked) [Compound 1006], 2.6 nM.
With `COc1cc(OCc2cccc(-c3cccc(OCC4CCCN(C)C4)c3Cl)c2C)c(Cl)cc1CN[C@@H]1CCOC1=O` (some centres unmarked) [Compound 1041] the figure was 9.1 nM; with `Cc1c(COc2cc(OCc3cncc(C#N)c3)c(CNC3CC(C)(C)OC3=O)cc2Cl)cccc1-c1cccc(OCC2CCCN(C)C2)c1Cl` (centres unmarked) [Compound 1007], 3.5 nM.
The result for `COc1cc(OCc2cccc(-c3cccc(OCC4CCCN(C)C4)c3Cl)c2C)c(Cl)cc1CN[C@H]1COC(=O)C1` (some centres unmarked) [Compound 1042] reads 5.6 nM; that for `Cc1c(COc2cc(OCc3cncc(C#N)c3)c(CNC3CC(C)(C)OC3=O)cc2Cl)cccc1-c1cccc(COc2cc(OCc3cncc(C#N)c3)c(CNC3CC(C)(C)OC3=O)cc2Cl)c1C` (centres unmarked) [Compound 1022], 145 nM; that for `Cc1c(COc2cc(OCc3cncc(C#N)c3)c(CN[C@@H]3COC(=O)C3)cc2Cl)cccc1-c1cccc(OCC2CCCN(C)C2)c1Cl` (some centres unmarked) [Compound 1004], 3.1 nM.
As for `COc1cc(OCc2cccc(-c3cccc(OCC4CCCN(C)C4)c3Cl)c2C)c(Cl)cc1CNC1CCC(=O)NC1=O` (centres unmarked) [Compound 1046], the IC50 was 3.1 nM.
The result for `COc1cc(OCc2cccc(-c3cccc(OCC4CCCN(C)C4)c3Cl)c2C)c(Cl)cc1CNC1CCNC1=O` (centres unmarked) [Compound 1038] reads 4.8 nM.
`N#Cc1cncc(COc2cc(OCc3cccc(-c4cccc(COc5cc(OCc6cncc(C#N)c6)c(CN[C@H]6CCOC6=O)cc5Cl)c4Cl)c3Cl)c(Cl)cc2CN[C@H]2CCOC2=O)c1` [Compound 1026] gave an IC50 of 10.4 nM. Against the preceding compound, the IC50 is about 2.2-fold higher.
Compound `Cc1c(COc2cc(O)c(CNC3(C)CCOC3=O)cc2Cl)cccc1-c1cccc(OCC2CCCN(C)C2)c1Cl` (centres unmarked) [Compound 1029] returned an IC50 of 132 nM. Against the preceding compound, the IC50 is about 13-fold higher.
With `Cc1c(COc2cc(OCc3cncc(C#N)c3)c(CN[C@@H]3CCOC3=O)cc2Cl)cccc1-c1cccc(COc2cc(OCc3cncc(C#N)c3)c(CN[C@@H]3CCOC3=O)cc2Cl)c1C` [Compound 1020] the figure was 7.3 nM; with `COc1cc(OCc2cccc(-c3cccc(OCC4CCCN(C)C4)c3Cl)c2C)c(Cl)cc1CN[C@H]1CCCNC1=O` (some centres unmarked) [Compound 1045], 3.6 nM.
Regarding `Cc1c(COc2cc(OCc3cncc(C#N)c3)c(CNC3CCN(C)C3=O)cc2Cl)cccc1-c1cccc(OCC2CCCN(C)C2)c1Cl` (centres unmarked) [Compound 1012], the IC50 worked out at 2.9 nM. The IC50 values of the last two compounds are within 1.5-fold of each other.
The result for `Cc1c(COc2cc(OCc3cncc(C#N)c3)c(CN(CC3CC3)C3(C)CCOC3=O)cc2Cl)cccc1-c1cccc(COc2cc(OCc3cncc(C#N)c3)c(CN(CC3CC3)C3(C)CCOC3=O)cc2Cl)c1C` (centres unmarked) [Compound 1052] reads 2500 nM; that for `Cc1c(COc2cc(OCc3cncc(C#N)c3)c(CNC3CCOC3=O)cc2Cl)cccc1-c1cccc(COc2cc(OCc3cncc(C#N)c3)c(CNC3CCOC3=O)cc2Cl)c1C` (centres unmarked) [Compound 1018], 15 nM; that for `COc1cc(OCc2cccc(-c3cccc(OCC4CCCN(C)C4)c3Cl)c2C)c(Cl)cc1CN[C@H]1CCNC1=O` (some centres unmarked) [Compound 1044], 5.6 nM.

The record behind these values is patent US20240327389A1, “LACTONE AND LACTAM CONTAINING COMPOUNDS USEFUL AS IMMUNOMODULATORS” (BRISTOL-MYERS SQUIBB COMPANY, priority 2021, published 2024).
